Reference: patent US20220265612A1, “CARDIAC SARCOMERE INHIBITOR ORAL FORMULATIONS” (Cytokinetics, Inc., priority 2019, published 2022)

Key:
[1] = target: T1, bovine cardiac myofibrils (Bos taurus, UniProt Q9BE39); experiment: Skinned bovine cardiac myofibril ATPase assay (PK/LDH-coupled); assay type: biochemical; conditions: myofibril ATPase at Ca2+ giving 75% activation (pCa75)
T1 construct: full-length cardiac myosin in the context of the native sarcomere; from tissue; host or cells: bovine cardiac left ventricular tissue, detergent-skinned (Triton X-100) myofibrils
Excerpt: Bovine cardiac myofibrils were obtained by homogenizing bovine cardiac left ventricular tissue in the presence of a detergent such as triton X-100. Such treatment removes membranes and a majority of the soluble cytoplasmic proteins but leaves intact the cardiac sarcomeric acto-myosin apparatus. Myofibril preparations retain the ability to hydrolyze ATP in a Ca^2+ regulated manner. […] This assay regenerates myosin-produced ADP into ATP by oxidizing NADH, producing an absorbance change at 340 nm.

[2] = test system: rat cardiac contractility; experiment: Echocardiography assessment of cardiac contractility, oral gavage; assay type: in vivo, Sprague Dawley rats; conditions: oral dosing, estimated value
Description: Assessment of in vivo cardiac function by echocardiography was performed in male Sprague Dawley rats under isoflurane (1-3%) anesthesia. […] In vivo fractional shortening was determined by M-mode image analysis with the following calculation: ((End diastolic diameter−end systolic diameter)/end diastolic diameter×100). […] During infusion, M-mode images were taken at 5 minute intervals. The infusion stopped when fractional shortening reached up to a 60% reduction from baseline. […] Data was reported as an estimated IC50 value, which is the concentration at which fractional shortening is 50% of the pre-dose baseline contractility.
For oral dosing studies, three pre-dose baseline M-Mode images were taken at 1 minute intervals prior to compound administration. […] Rats were lightly anesthetized for M-Mode echocardiography measurements at select time points over a 24 hour period. Different dose levels were evaluated for (R)-N-(5-(5-ethyl-1,2,4-oxadiazol-3-yl)-2,3-dihydro-1H-inden-1-yl)-1-methyl-1H-pyrazole-4-carboxamide. The compound effect on cardiac fractional shortening at the highest dose evaluated is presented in Table D as a percent reduction of baseline fractional shortening (=100%).

T1 sequence (Q9BE39 whole entry): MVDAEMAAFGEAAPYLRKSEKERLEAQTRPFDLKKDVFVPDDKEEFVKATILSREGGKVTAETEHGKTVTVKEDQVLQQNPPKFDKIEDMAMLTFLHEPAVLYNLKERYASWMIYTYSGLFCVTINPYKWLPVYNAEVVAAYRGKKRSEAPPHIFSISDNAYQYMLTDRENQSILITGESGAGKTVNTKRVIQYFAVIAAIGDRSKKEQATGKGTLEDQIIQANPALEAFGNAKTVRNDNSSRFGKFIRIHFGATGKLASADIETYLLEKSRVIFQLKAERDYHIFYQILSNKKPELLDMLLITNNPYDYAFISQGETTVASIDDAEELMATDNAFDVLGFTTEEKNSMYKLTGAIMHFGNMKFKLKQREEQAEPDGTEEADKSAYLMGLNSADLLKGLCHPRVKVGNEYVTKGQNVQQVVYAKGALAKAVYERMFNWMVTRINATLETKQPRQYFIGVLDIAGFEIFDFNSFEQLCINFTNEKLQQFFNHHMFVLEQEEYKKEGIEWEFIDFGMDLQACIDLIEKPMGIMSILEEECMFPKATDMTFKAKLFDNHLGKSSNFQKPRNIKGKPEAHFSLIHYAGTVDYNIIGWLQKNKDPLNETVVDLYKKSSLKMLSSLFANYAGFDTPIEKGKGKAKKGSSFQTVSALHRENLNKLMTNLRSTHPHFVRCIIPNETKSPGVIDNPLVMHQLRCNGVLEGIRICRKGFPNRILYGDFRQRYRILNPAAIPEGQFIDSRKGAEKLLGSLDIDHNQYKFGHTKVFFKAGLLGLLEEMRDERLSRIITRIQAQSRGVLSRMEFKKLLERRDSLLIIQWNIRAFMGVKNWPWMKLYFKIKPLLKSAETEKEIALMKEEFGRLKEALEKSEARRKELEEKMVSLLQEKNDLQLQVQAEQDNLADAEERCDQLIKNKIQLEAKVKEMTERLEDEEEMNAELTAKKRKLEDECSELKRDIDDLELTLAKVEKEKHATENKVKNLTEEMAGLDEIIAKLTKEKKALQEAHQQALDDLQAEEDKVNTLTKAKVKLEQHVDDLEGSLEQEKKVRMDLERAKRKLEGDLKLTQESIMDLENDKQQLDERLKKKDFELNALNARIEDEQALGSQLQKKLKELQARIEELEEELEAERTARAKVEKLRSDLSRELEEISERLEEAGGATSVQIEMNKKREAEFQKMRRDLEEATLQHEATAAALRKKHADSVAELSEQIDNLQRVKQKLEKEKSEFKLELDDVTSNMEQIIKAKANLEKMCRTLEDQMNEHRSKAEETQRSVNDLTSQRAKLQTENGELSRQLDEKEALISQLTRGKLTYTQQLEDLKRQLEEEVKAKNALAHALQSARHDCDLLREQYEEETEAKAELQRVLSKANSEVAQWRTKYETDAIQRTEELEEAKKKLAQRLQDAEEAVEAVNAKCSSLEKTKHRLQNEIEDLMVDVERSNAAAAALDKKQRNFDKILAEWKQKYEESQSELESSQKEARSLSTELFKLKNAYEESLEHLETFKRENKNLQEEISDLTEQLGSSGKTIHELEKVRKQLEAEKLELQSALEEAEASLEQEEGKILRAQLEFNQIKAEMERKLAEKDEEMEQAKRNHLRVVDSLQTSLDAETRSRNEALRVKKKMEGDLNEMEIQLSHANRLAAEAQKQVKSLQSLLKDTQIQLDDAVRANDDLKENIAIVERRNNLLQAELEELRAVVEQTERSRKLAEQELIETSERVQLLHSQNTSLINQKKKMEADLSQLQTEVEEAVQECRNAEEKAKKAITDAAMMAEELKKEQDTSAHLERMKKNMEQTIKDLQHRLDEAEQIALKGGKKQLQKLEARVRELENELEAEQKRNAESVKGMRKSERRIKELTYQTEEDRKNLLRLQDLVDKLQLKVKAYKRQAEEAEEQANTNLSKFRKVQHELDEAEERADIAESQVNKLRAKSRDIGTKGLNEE
T1 sequence (P85100 whole entry partner): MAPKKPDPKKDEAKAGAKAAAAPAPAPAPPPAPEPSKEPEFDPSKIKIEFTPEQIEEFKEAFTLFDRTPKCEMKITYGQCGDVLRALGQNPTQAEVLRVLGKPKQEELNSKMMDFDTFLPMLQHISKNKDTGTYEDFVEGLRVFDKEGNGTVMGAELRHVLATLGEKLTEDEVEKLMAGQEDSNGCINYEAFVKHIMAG
T1 sequence (Q3SZE5 whole entry partner): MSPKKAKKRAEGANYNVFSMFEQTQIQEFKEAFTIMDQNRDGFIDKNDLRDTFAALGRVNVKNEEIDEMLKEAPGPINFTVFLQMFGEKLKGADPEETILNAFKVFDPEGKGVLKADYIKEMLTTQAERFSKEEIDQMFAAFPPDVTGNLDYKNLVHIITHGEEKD

CDMF75 IC15 [1]: 400 nM
Compound: CCc1nc(-c2ccc3c(c2)CC[C@H]3NC(=O)c2cnn(C)c2)no1 [(R)-N-(5-(5-ethyl-1,2,4-oxadiazol-3-yl)-2,3-dihydro-1H-inden-1-yl)-1-methyl-1H-pyrazole-4-carboxamide]
IC10, plasma concentration for fractional shortening [2]: 800 nM
